Here are results for 9 molecules from BindingDB's records for doi:10.1016/j.bmcl.2017.05.024 (Yeungnam University, 2017).

By IC50 is commonly meant the midpoint of a concentration-inhibition curve. A higher IC50 goes with lower potency.

Bounds are passed on as bounds.

The target in this assay is Hypoxia-inducible factor 1-alpha (Homo sapiens, UniProt Q16665). As to the kind of experiment: ChEBML_1685544. An excerpt: Inhibition of hypoxia-induced HIF1alpha (unknown origin) transcriptional activity expressed in human HCT116 cells by HRE luciferase reporter gene assay
Sequence of Hypoxia-inducible factor 1-alpha (Q16665 whole entry): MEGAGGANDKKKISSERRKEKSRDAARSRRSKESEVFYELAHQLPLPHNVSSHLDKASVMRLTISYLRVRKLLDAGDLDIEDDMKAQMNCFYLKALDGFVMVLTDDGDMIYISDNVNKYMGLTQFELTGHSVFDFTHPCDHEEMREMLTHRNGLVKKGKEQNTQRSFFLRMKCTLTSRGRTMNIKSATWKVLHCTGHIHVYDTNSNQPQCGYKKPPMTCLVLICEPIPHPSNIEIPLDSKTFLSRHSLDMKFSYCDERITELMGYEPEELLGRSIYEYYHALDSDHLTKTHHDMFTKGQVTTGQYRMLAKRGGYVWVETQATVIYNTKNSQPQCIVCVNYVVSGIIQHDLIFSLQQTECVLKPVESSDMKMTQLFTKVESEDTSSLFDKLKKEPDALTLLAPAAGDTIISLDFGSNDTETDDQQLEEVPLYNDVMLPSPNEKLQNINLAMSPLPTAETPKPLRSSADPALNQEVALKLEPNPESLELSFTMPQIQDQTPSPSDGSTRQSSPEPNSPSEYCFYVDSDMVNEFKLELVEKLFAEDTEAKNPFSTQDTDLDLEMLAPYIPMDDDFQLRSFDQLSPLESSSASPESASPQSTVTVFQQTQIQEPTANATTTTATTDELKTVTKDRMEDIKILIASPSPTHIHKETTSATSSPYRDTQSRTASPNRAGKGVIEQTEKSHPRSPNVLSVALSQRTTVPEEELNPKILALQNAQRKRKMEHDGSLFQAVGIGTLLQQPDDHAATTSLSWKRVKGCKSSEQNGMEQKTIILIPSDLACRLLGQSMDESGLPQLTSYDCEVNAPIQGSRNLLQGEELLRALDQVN

In turn, `CO/N=C(/C(=O)OC)c1ccccc1COc1cccc(O)c1` registered a half-maximal inhibitory concentration (IC50) of 9.16 µM. The molecule `CO/N=C(/C(=O)OC)c1ccccc1COc1cccc(OCc2ccc(Cl)cc2)c1` showed an IC50 of 0.6 µM. As to `CO/N=C(\C)c1cccc(OCc2ccccc2/C(=N\OC)C(=O)OC)c1`, half-maximal inhibition (IC50) required 4.52 µM.

Molecule `CO/N=C(/C(=O)OC)c1ccccc1COc1cccc(OCc2ccccc2)c1` gave an IC50 of 1.12 µM.

For the molecule `CO/N=C(/C(=O)OC)c1ccccc1COc1cccc(OCC#N)c1`, the IC50 is more than 20 µM. With `CO/N=C/c1cccc(OCc2ccccc2/C(=N\OC)C(=O)OC)c1`, the midpoint of inhibition, the IC50, lay at 3.4 µM.

On to `C=Cc1ccc(COc2cccc(OCc3ccccc3/C(=N\OC)C(=O)OC)c2)cc1`, for which the IC50 is 0.87 µM. Then `CO/N=C(/C(=O)OC)c1ccccc1COc1cccc(OCc2cc(C(F)(F)F)cc(C(F)(F)F)c2)c1`, with 0.94 µM. Then `CO/N=C/c1ccc(OC)c(OCc2ccccc2/C(=N\OC)C(=O)OC)c1`, with 14.9 µM.
